We go through 4 molecules from article PMC9525708, “Mechanistic insight into the role of mevalonate kinase by a natural fatty acid-mediated killing of Leishmania donovani” (Scientific Reports, 2022).

Experiment [1] addresses T1, mevalonate kinase (MevK, LD-MevK) (Leishmania donovani, UniProt A0A3S7X459).
T1 construct: gene LdCL_310011300; recombinant LD-MevK (pET28a, Ni-NTA purified, ~37 kDa)
T1 sequence (A0A3S7X459 1-329): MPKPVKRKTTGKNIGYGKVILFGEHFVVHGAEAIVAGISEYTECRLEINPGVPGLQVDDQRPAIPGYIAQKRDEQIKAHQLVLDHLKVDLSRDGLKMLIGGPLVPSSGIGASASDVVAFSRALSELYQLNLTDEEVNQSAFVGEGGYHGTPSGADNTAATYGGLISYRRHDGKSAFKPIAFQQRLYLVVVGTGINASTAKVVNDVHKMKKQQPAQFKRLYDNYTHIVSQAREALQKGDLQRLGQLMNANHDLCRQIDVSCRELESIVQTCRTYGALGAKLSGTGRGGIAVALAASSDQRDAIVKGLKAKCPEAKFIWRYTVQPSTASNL
In words: ITC (endothermic binding constant); also CD and enzyme kinetics (Km […]).

Experiment [2] addresses T1, mevalonate kinase (MevK, LD-MevK). In words: ITC (exothermic binding constant); also CD, and coupled PK-LDH assay with purified enzyme ([…] inhibition at […], competitive). The settings on record: read-out: ITC (exothermic binding constant); also CD, and coupled PK-LDH assay with purifi.
Experiment [3] has the same target. Description: pyruvate kinase-lactate dehydrogenase coupled assay, purified enzyme, […] compound. Type of experiment: biochemical.

Each structure is given as a SMILES string.

In turn, `C[C@@](O)(CCO)CC(=O)O` [MEV, 3,5-Dihydroxy-3-methylpentanoic acid] had a Kd in experiment [1] of 62.9 µM.

As to `CCCCCCCC(=O)O` [CA, Caprylic acid], in experiment [2], the Kd came to 101 µM.

In experiment [3], `CCCCCCCC(=O)OC` [1m-CAE, methyl octanoate] registered an inhibition at 100 µM of about 65%.

As to `CCCCC(C)CCC(=O)O` (stereo not shown) [4m-CA, 4-methyl octanoic acid], the inhibition at 100 µM in experiment [3] was about 65%.

A word on the inhibition: it is how much of the control response was suppressed. Lower therefore signals a weak effect.
